Among the data in ChEMBL document CHEMBL3638687, “N-biphenylmethylindole modulators of PPARG” (2015) are IC50 values, retold here.

pIC50: −log10 of the molar value.

As a reminder, the pIC50 is the IC50 on a negative log10 scale, so that one unit is a factor of ten.

The assay deals with T1, Peroxisome proliferator-activated receptor gamma (Homo sapiens, UniProt P37231).
T1 sequence (P37231 whole entry): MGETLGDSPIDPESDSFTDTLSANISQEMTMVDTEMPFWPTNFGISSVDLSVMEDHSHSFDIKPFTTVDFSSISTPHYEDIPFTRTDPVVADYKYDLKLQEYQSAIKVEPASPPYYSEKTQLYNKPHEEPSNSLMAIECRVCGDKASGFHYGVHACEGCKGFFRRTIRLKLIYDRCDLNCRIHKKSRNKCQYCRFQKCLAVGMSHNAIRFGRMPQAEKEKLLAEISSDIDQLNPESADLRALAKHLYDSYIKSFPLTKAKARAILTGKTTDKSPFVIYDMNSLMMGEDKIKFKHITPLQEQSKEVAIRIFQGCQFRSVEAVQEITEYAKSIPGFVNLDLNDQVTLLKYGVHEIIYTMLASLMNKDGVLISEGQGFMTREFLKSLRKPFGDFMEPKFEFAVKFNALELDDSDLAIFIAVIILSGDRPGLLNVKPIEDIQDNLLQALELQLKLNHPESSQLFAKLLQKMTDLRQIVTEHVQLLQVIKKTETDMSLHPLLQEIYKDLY
Put plainly: Lanthascreen Competitive Binding Assay: The assay was performed according to manufacturer protocol. A mixture of […], 5 nM Tb-GST-antibody, 5 nM Fluormone Pan-PPAR Green, and serial dilutions of the experimental compound, beginning at 10 μM downwards, was added to wells of black 384-well low-volume plates (Greiner) to a total volume of 18 μL. All dilutions were made in TR-FRET assay buffer C. DMSO at 2% final concentration was used as a no-ligand control. Experiment was performed in triplicate, and incubated for 2 hours in the dark prior to assay read in Perkin Elmer ViewLux ultra HTS microplate reader. FRET signal was measured by excitation at 340 nm and emission at 520 nm for fluorescein and 490 nm for terbium. Fold change over DMSO was calculated using GraphPad Prism Software (La Jolla, Calif.) by calculating 520 nm/490 nm ratio. Graphs were plotted as fold change of FRET signal for compound treatment over DMSO-only control.

Regarding `Cc1cn(Cc2ccc(-c3ccccc3C(=O)O)cc2)c2ccc(C(=O)N[C@@H](C)c3ccc([N+](=O)[O-])cc3)cc12`, the negative-log IC50 (pIC50) was 6.90.

Consider `CC[C@H](NC(=O)c1ccc2c(c1)c(C)c(C)n2Cc1ccccc1-c1cccc(C(=O)O)c1)c1ccccc1`, for which the pIC50 is 7.10. `CCC(NC(=O)c1ccc2c(c1)c(C)cn2Cc1ccc(-c2ccccc2C(=O)O)cc1)c1ccccc1` (stereo unspecified): the pIC50 is 8.70.

As to `CCC(NC(=O)c1ccc2c(c1)c(C)c(C)n2Cc1ccc(-c2ccccc2C#N)cc1)c1ccccc1` (stereo unspecified), the pIC50 is 9.27. As for `Cc1c(C)n(Cc2ccc(-c3cccnc3)cc2)c2ccc(C(=O)N[C@@H](C)c3ccc([N+](=O)[O-])cc3)cc12`, the pIC50 was 6.82. On to `Cc1c(C)n(Cc2ccc(-c3ccccc3C(=O)O)cc2)c2ccc(C(=O)N[C@@H](C)c3ccc(OC(C)(C)C)cc3)cc12`, for which the pIC50 is 6.35. The figure for `Cc1c(C)n(Cc2ccc(-c3ccccc3C(=O)O)cc2)c2ccc(C(=O)N[C@@H](C)c3ccc(Cl)c(C(F)(F)F)c3)cc12` is 7.82; for `Cc1c(C)n(Cc2ccc(-c3ccccc3C(=O)O)cc2)c2ccc(C(=O)N[C@@H](C)c3ccc(OC(C)C)cc3)cc12` it is 7.47. As for `Cc1c(C)n(Cc2ccc(-c3ccccc3C(=O)O)cc2)c2ccc(C(=O)NCc3ccc(F)c(F)c3)cc12`, the negative logarithm of the IC50 (pIC50) was 7.51. Turning to `CC[C@@H](NC(=O)c1ccc2c(c1)c(C)c(C)n2Cc1ccccc1-c1ccc(C(=O)O)cc1)c1ccccc1`, the pIC50 was 7.10. Take `Cc1c(C)n(Cc2ccc(-c3ccccc3C(=O)O)cc2)c2ccc(C(=O)N[C@@H](C)C3CCN(C(=O)NCc4ccccc4)CC3)cc12`: the pIC50 was 6.09. The figure for `Cc1c(C)n(Cc2ccc(-c3ccccc3C(=O)O)cc2)c2ccc(C(=O)N[C@@H](C)c3cccc(OC(C)C)c3)cc12` is 7.72. The figure for `Cc1c(C)n(Cc2ccc(-c3ccccc3C(=O)O)cc2)c2ccc(C(=O)N[C@H]3CCN(C(=O)OCc4ccccc4)C3)cc12` is 6.27; for `CCC(NC(=O)c1ccc2c(c1)cc(C)n2Cc1ccc(-c2ccccc2C(=O)O)cc1)c1ccccc1` (stereo unspecified) it is 8.70.

For the compound `CC[C@@H](NC(=O)c1ccc2c(c1)c(C)c(C)n2Cc1ccccc1-c1cccc(C(=O)O)c1)c1ccccc1`, the negative logarithm of the IC50 (pIC50) was 7.70. For `CC[C@H](NC(=O)c1ccc2c(c1)c(C)c(C)n2Cc1ccccc1-c1ccc(C(=O)O)cc1)c1ccccc1`, the negative-log IC50 (pIC50) was < 6.00.
